# ± gives the expanded uncertainty stated by the source.
# Details: for surface tension liquid-gas: Maximal bubble pressure; for mass density: 100 kPa, Liquid, Vibrating tube method
smiles,measurement,setting,value
CCn1cc[n+](CCOC)c1.O=S(=O)([N-]S(=O)(=O)C(F)(F)F)C(F)(F)F,surface tension liquid-gas,298.15 K,36 ± 0.4 mN/m
same,mass density,298.15 K,1463.13 ± 2.4 kg/m3
same,surface tension liquid-gas,303.15 K,35.8 ± 0.4 mN/m
same,mass density,303.15 K,1458.11 ± 2.4 kg/m3
same,surface tension liquid-gas,308.15 K,35.5 ± 0.4 mN/m
same,mass density,308.15 K,1453.11 ± 2.4 kg/m3
same,surface tension liquid-gas,313.15 K,35.2 ± 0.4 mN/m
same,mass density,313.15 K,1448.12 ± 2.4 kg/m3
same,surface tension liquid-gas,318.15 K,35 ± 0.4 mN/m
same,mass density,318.15 K,1443.16 ± 2.4 kg/m3
same,surface tension liquid-gas,323.15 K,34.7 ± 0.4 mN/m
same,mass density,323.15 K,1438.21 ± 2.4 kg/m3
same,surface tension liquid-gas,328.15 K,34.4 ± 0.4 mN/m
same,mass density,328.15 K,1433.29 ± 2.4 kg/m3
same,surface tension liquid-gas,333.15 K,34.1 ± 0.4 mN/m
same,mass density,333.15 K,1428.39 ± 2.4 kg/m3
same,surface tension liquid-gas,338.15 K,33.9 ± 0.4 mN/m
same,mass density,338.15 K,1423.51 ± 2.4 kg/m3
CCn1cc[n+](CCOC)c1.N#C[S-] [1-ethyl-3-(2-methoxyethyl)imidazolium thiocyanate],surface tension liquid-gas,298.15 K,49 ± 0.5 mN/m
same,mass density,298.15 K,1122.11 ± 4.6 kg/m3
same,surface tension liquid-gas,303.15 K,48.7 ± 0.5 mN/m
same,mass density,303.15 K,1118.89 ± 4.6 kg/m3
same,surface tension liquid-gas,308.15 K,48.4 ± 0.5 mN/m
same,mass density,308.15 K,1115.69 ± 4.6 kg/m3
same,surface tension liquid-gas,313.15 K,48 ± 0.5 mN/m
same,mass density,313.15 K,1112.52 ± 4.6 kg/m3
same,surface tension liquid-gas,318.15 K,47.7 ± 0.5 mN/m
same,mass density,318.15 K,1109.37 ± 4.6 kg/m3
same,surface tension liquid-gas,323.15 K,47.5 ± 0.5 mN/m
same,mass density,323.15 K,1106.23 ± 4.6 kg/m3
same,surface tension liquid-gas,328.15 K,47.3 ± 0.5 mN/m
same,mass density,328.15 K,1103.12 ± 4.6 kg/m3
same,surface tension liquid-gas,333.15 K,47.1 ± 0.5 mN/m
same,mass density,333.15 K,1100.01 ± 4.6 kg/m3
same,surface tension liquid-gas,338.15 K,46.7 ± 0.5 mN/m
same,mass density,338.15 K,1096.92 ± 4.6 kg/m3
CCn1cc[n+](CCOC)c1.N#C[N-]C#N [1-ethyl-3-(2-methoxyethyl)imidazolium dicyanamide],surface tension liquid-gas,298.15 K,44.6 ± 0.5 mN/m
same,mass density,298.15 K,1113.6 ± 4.6 kg/m3
same,surface tension liquid-gas,303.15 K,44.3 ± 0.5 mN/m
same,mass density,303.15 K,1110.21 ± 4.6 kg/m3
same,surface tension liquid-gas,308.15 K,44 ± 0.5 mN/m
same,mass density,308.15 K,1106.83 ± 4.6 kg/m3
same,surface tension liquid-gas,313.15 K,43.7 ± 0.5 mN/m
same,mass density,313.15 K,1103.48 ± 4.6 kg/m3
same,surface tension liquid-gas,318.15 K,43.4 ± 0.5 mN/m
same,mass density,318.15 K,1100.15 ± 4.6 kg/m3
same,surface tension liquid-gas,323.15 K,43.1 ± 0.5 mN/m
same,mass density,323.15 K,1096.84 ± 4.6 kg/m3
same,surface tension liquid-gas,328.15 K,42.9 ± 0.5 mN/m
same,mass density,328.15 K,1093.53 ± 4.6 kg/m3
same,surface tension liquid-gas,333.15 K,42.7 ± 0.4 mN/m
same,mass density,333.15 K,1090.26 ± 4.6 kg/m3
same,surface tension liquid-gas,338.15 K,42.4 ± 0.4 mN/m
same,mass density,338.15 K,1087 ± 4.6 kg/m3
CC(=O)[O-].CCn1cc[n+](CCOC)c1 [1-ethyl-3-(2-methoxyethyl)imidazolium acetate],surface tension liquid-gas,298.15 K,46 ± 0.5 mN/m
same,mass density,298.15 K,1192.38 ± 4.6 kg/m3
same,surface tension liquid-gas,303.15 K,45.7 ± 0.5 mN/m
same,mass density,303.15 K,1189.07 ± 4.6 kg/m3
same,surface tension liquid-gas,308.15 K,45.4 ± 0.5 mN/m
same,mass density,308.15 K,1185.74 ± 4.6 kg/m3
same,surface tension liquid-gas,313.15 K,45.1 ± 0.5 mN/m
same,mass density,313.15 K,1182.43 ± 4.6 kg/m3
same,surface tension liquid-gas,318.15 K,44.8 ± 0.5 mN/m
same,mass density,318.15 K,1179.14 ± 4.6 kg/m3
same,surface tension liquid-gas,323.15 K,44.5 ± 0.5 mN/m
same,mass density,323.15 K,1175.86 ± 4.6 kg/m3
same,surface tension liquid-gas,328.15 K,44.3 ± 0.5 mN/m
same,mass density,328.15 K,1172.58 ± 4.6 kg/m3
same,surface tension liquid-gas,333.15 K,44.1 ± 0.5 mN/m
same,mass density,333.15 K,1169.35 ± 4.6 kg/m3
same,surface tension liquid-gas,338.15 K,43.9 ± 0.5 mN/m
same,mass density,338.15 K,1166.13 ± 4.6 kg/m3
CCn1cc[n+](CCOC)c1.O=S(=O)([O-])C(F)(F)F,surface tension liquid-gas,298.15 K,38 ± 0.4 mN/m
same,mass density,298.15 K,1355.89 ± 4.6 kg/m3
same,surface tension liquid-gas,303.15 K,37.7 ± 0.4 mN/m
same,mass density,303.15 K,1351.61 ± 4.6 kg/m3
same,surface tension liquid-gas,308.15 K,37.4 ± 0.4 mN/m
same,mass density,308.15 K,1347.35 ± 4.6 kg/m3
same,surface tension liquid-gas,313.15 K,37.1 ± 0.4 mN/m
same,mass density,313.15 K,1343.11 ± 4.6 kg/m3
same,surface tension liquid-gas,318.15 K,36.9 ± 0.4 mN/m
same,mass density,318.15 K,1338.88 ± 4.6 kg/m3
same,surface tension liquid-gas,323.15 K,36.5 ± 0.4 mN/m
same,mass density,323.15 K,1334.67 ± 4.6 kg/m3
same,surface tension liquid-gas,328.15 K,36.3 ± 0.4 mN/m
same,mass density,328.15 K,1330.48 ± 4.6 kg/m3
same,surface tension liquid-gas,333.15 K,36.1 ± 0.4 mN/m
same,mass density,333.15 K,1326.3 ± 4.6 kg/m3
same,surface tension liquid-gas,338.15 K,35.8 ± 0.4 mN/m
same,mass density,338.15 K,1322.12 ± 4.6 kg/m3

# From the NIST ThermoML archive (doi:10.1016/j.jct.2017.08.035)
